Measurements as given in the supplement of paper PMC10307832.

Columns and labels:
Assay in all cases: relative viability (nuclei count vs DMSO), 5 days (fraction); higher = more cells survive
Irinotecan + Trametinib = compound: CCc1c2c(nc3ccc(OC(=O)N4CCC(N5CCCCC5)CC4)cc13)-c1cc3c(c(=O)n1C2)COC(=O)[C@]3(O)CC [Irinotecan] + CC(=O)Nc1cccc(-n2c(=O)n(C3CC3)c(=O)c3c(Nc4ccc(I)cc4F)n(C)c(=O)c(C)c32)c1 [Trametinib] (partner 0.02 µM)
Method in brief: (§1)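 Lung cancer cell lines were pin-tool dosed in 1536-well plates on the day after seeding, with either a lone drug or a fixed anchor-drug dose plus five library-drug doses (not always all listed) in √10 steps. Nuclei were counted on 4× images after 5 days. Relative viability is the ratio of treated-well to vehicle-well nuclei counts, with each value a median of duplicate plates.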

MK-8033 + AZD7762 = compound: Cn1cc(-c2cnc3ccc4ccc(CS(=O)(=O)NCc5ccccn5)cc4c(=O)c3c2)cn1 [MK-8033] + NC(=O)Nc1cc(-c2cccc(F)c2)sc1C(=O)N[C@H]1CCCNC1 [AZD7762] (partner 0.2 µM)
Method in brief: as §1

MK-8033 + Olaparib = compound: Cn1cc(-c2cnc3ccc4ccc(CS(=O)(=O)NCc5ccccn5)cc4c(=O)c3c2)cn1 [MK-8033] + O=C(c1cc(Cc2n[nH]c(=O)c3ccccc23)ccc1F)N1CCN(C(=O)C2CC2)CC1 [Olaparib] (partner 8 µM)
Method in brief: as §1

RU-SKI 43 + Trametinib = compound: CC[C@@H](C)CNCC(=O)N1CCC2=C([C@@H]1COC3=CC=CC(=C3)C)C=CS2 [RU-SKI 43] + CC(=O)Nc1cccc(-n2c(=O)n(C3CC3)c(=O)c3c(Nc4ccc(I)cc4F)n(C)c(=O)c(C)c32)c1 [Trametinib] (partner 0.02 µM)
Method in brief: as §1

Cell Line | relative viability (Irinotecan + Trametinib; first compound 0.6325 µM) | relative viability (Irinotecan + Trametinib; first compound 2 µM) | relative viability (Irinotecan + Trametinib; first compound 6.325 µM) | relative viability (Irinotecan + Trametinib; first compound 20 µM) | relative viability (MK-8033 + AZD7762; first compound 0.02 µM) | relative viability (MK-8033 + AZD7762; first compound 0.06325 µM) | relative viability (MK-8033 + AZD7762; first compound 0.2 µM) | relative viability (MK-8033 + AZD7762; first compound 0.6325 µM) | relative viability (MK-8033 + AZD7762; first compound 2 µM) | relative viability (MK-8033 + Olaparib; first compound 0.02 µM) | relative viability (MK-8033 + Olaparib; first compound 0.06325 µM) | relative viability (MK-8033 + Olaparib; first compound 0.2 µM) | relative viability (MK-8033 + Olaparib; first compound 0.6325 µM) | relative viability (MK-8033 + Olaparib; first compound 2 µM) | relative viability (RU-SKI 43 + Trametinib; first compound 0.1 µM) | relative viability (RU-SKI 43 + Trametinib; first compound 0.3162 µM) | relative viability (RU-SKI 43 + Trametinib; first compound 1 µM) | relative viability (RU-SKI 43 + Trametinib; first compound 3.162 µM) | relative viability (RU-SKI 43 + Trametinib; first compound 10 µM)
201T | 0.771 | 0.347 | 0.255 | 0.27 | 0.7 | 0.481 | 0.607 | 0.683 | 0.618 | 0.873 | 0.824 | 0.832 | 0.82 | 0.822 | 0.709 | 0.717 | 0.776 | 0.789 | 0.749
A549 | – | – | – | – | – | – | – | – | – | 0.34 | 0.275 | 0.267 | 0.305 | 0.336 | – | – | – | – | –
A-427 | 0.719 | 0.657 | 0.365 | 0.175 | 0.791 | 0.634 | 0.692 | 0.775 | 0.728 | 0.778 | 0.722 | 0.623 | 0.818 | 0.676 | 0.718 | 0.694 | 0.788 | 0.744 | 0.706
ABC-1 | – | – | – | – | 0.86 | 0.709 | 0.475 | 0.874 | 1.06 | 1.07 | 0.746 | 0.838 | 0.939 | 0.898 | – | – | – | – | –
BEN | 1.2 | 0.769 | 0.503 | 0.556 | 0.82 | 0.634 | 0.76 | 0.599 | 0.788 | 1.13 | 1.01 | 0.986 | 0.985 | 1.01 | 0.967 | 1.12 | 1.06 | 1.11 | 1.01
CAL-12T | 0.309 | 0.292 | 0.299 | 0.274 | 0.594 | 0.66 | 0.59 | 0.573 | 0.567 | 0.61 | 0.692 | 0.71 | 0.718 | 0.756 | 0.306 | 0.242 | 0.316 | 0.259 | 0.351
COR-L23 | 0.307 | 0.41 | 0.23 | 0.0821 | – | – | – | – | – | 0.348 | 0.328 | 0.378 | 0.367 | 0.311 | 0.611 | 0.598 | 0.672 | 0.577 | 0.423
COR-L 105 | 0.432 | 0.425 | 0.474 | 0.401 | – | – | – | – | – | 0.846 | 0.673 | 0.7 | 0.637 | 0.701 | 0.404 | 0.334 | 0.41 | 0.414 | 0.397
Calu-6 | – | – | – | – | – | – | – | – | – | 0.601 | 0.559 | 0.553 | 0.582 | 0.548 | – | – | – | – | –
ChaGo-K-1 | 0.296 | 0.24 | 0.21 | 0.221 | 0.872 | 0.921 | 0.857 | 0.932 | 0.82 | 0.442 | 0.412 | 0.415 | 0.433 | 0.372 | 0.921 | 1.01 | 0.899 | 0.941 | 0.906
EBC-1 | – | – | – | – | – | – | – | – | – | 0.659 | 0.565 | 0.792 | 0.648 | 0.568 | – | – | – | – | –
EKVX | – | 0.35 | 0.279 | 0.15 | 0.695 | 0.615 | 0.693 | 0.647 | 0.63 | 0.85 | 0.842 | 0.825 | 0.763 | 0.859 | 0.275 | 0.312 | 0.268 | 0.349 | 0.315
EMC-BAC-2 | 0.867 | 0.766 | 0.474 | 0.201 | 1.12 | 0.979 | 1 | 1.01 | 1.09 | 0.501 | 0.477 | 0.473 | 0.49 | 0.479 | 0.857 | 0.9 | 0.939 | 0.861 | 0.749
EPLC-272H | – | 0.323 | 0.224 | 0.203 | 0.207 | 0.144 | 0.201 | 0.167 | 0.19 | 0.817 | 0.716 | 0.792 | 0.614 | 0.689 | 0.294 | 0.294 | 0.552 | 0.296 | 0.278
H3255 | – | 0.506 | 0.346 | 0.37 | 0.932 | 0.724 | 0.793 | 0.788 | 0.899 | 0.567 | 0.504 | 0.561 | 0.57 | 0.537 | 0.664 | 0.682 | 0.625 | 0.578 | 0.588
HARA | 0.643 | 0.373 | 0.245 | 0.145 | 0.471 | 0.268 | 0.263 | 0.303 | 0.438 | 0.558 | 0.542 | 0.761 | 0.732 | 0.639 | 0.507 | 0.806 | 1.02 | 0.936 | 0.561
HCC-15 | 0.325 | 0.233 | 0.179 | 0.174 | 1.06 | 1.31 | 0.978 | 1.31 | 1.18 | 0.807 | 0.611 | 0.737 | 0.67 | 0.529 | 0.41 | 0.373 | 0.37 | 0.384 | 0.336
HCC-44 | 1.01 | 0.868 | 0.561 | 0.421 | 1.04 | 1.04 | 0.994 | 1.06 | 1.02 | 1 | 1.06 | 0.931 | 1.01 | 0.975 | 1.11 | 1.06 | 1.17 | 1.15 | 1.07
HCC-78 | 0.882 | 0.716 | 0.31 | 0.262 | 0.712 | 0.517 | 0.719 | 0.557 | 0.566 | 0.717 | 0.82 | 0.739 | 0.505 | 0.775 | 0.678 | 0.916 | 0.641 | 0.809 | 0.724
HCC-366 | 0.266 | 0.184 | 0.0834 | 0.0768 | 0.367 | 0.231 | 0.228 | 0.291 | 0.256 | 0.361 | 0.344 | 0.328 | 0.34 | 0.323 | 0.34 | 0.253 | 0.311 | 0.333 | 0.212
